Patent publication US8349991B2, “Amphiphilic polymers and methods of use thereof” (Massachusetts Institute of Technology, priority 2005, dated 2013)
pKd: −log10 of the molar value. “Also recorded” adds a separate entry of the source. Where no end group is shown, it is not given here. The star is where a group is joined. Acm = CC(=O)NC*

Legend:
[1] = Acute oral toxicity testing (LD50); conditions: C57BI/6, mouse, in vivo
Description: Acute oral toxicity testing of intact nanospheres and individual components was carried out to determine the LD50 (median lethal dose) with C57BI/6 (Table 2).

INS-1 cells = assay: Cellular cytotoxicity by MTS after exposure to polymers and reagents; type: cell-based; conditions: 1 mg/mL polymer or 0.05 mg/mL dye, 37° C., up to 48 hours post-exposure
Description: Cellular cytotoxicity following exposure to the polymers and reagents: INS-1 cells were incubated with the polymers and/or reagents (1 mg/mL polymer or 0.05 mg/mL dye) at 37° C., and cellular viability was determined by MTS (FIG. 5).

Cells = conditions: 0.2 mg/mL, 5 hr, 37° C.
INS cells = conditions: 0.2 mg/mL, 37° C.
[2] = test system: human control uMUC-1-negative tumor and normal cell lines; assay: Cell binding assay with 125I-labeled CLIO-EPPT; type: cell-based; conditions: 1 hour incubation
Source text: (§1) FIG. 7 depicts a crosslinked iron oxide (CLIO)-EPPT multi-modal imaging probe. (A) The core protein of the MUC-1 tumor antigen. The immunodominant region of the tandem repeat is recognized by the EPPT1 peptide derived from an ASM2 monoclonal antibody (45). (B) Synthesis (left) and scheme of the probe (right). […] Left, overlay of the bright field and FITC channel; middle, overlay of the bright field and Cy5.5 channel; right, overlay of the FITC and Cy5.5 channels. […] Magnification bars=10 μm.
(§2) Cell binding assays (FIG. 7D) were carried out with a variety of human uMUC-1-positive tumor cell lines: ZR-75-1 (breast), BT-20 (breast), HT29 (colon), CAPAN-2 (pancreas), LS174T (colon), and ChaGo-K-1 (lung) as well as human control uMUC-1-negative tumor and normal cell lines.

[3] = test system: human uMUC-1-positive tumor cell lines; assay: Cell binding assay with 125I-labeled CLIO-EPPT; type: cell-based
Source text: as §1, §2

[4] = test system: uMUC-1-positive tumors versus uMUC-1-negative tumors; design: species or system mice; conditions: mouse, in vivo
Description: (§3) In vivo ^1H-MR imaging was performed on animals bearing bilateral uMUC-1-positive and uMUC-1-negative tumors before and 24 hours after probe injection. […] The same animals were subjected to optical imaging immediately after the MR-imaging session. […] Fluorescence microscopy of excised tumors and muscle tissue gave results consistent with NIRF images. From biodistribution studies with ^125I-CLIO-EPPT, on average uMUC-1-positive tumors accumulated 3.4 times more of the probe than uMUC-1-negative tumors.

[5] = test system: adenocarcinoma cell lines (BT-20, CAPAN-2, ChaGo-K-1, HT-29, LS174T); assay: In vitro specificity of CLIO-EPPT (flow cytometry, fluorescence microscopy); type: cell-based, human
Source text: as §1
(§4) In vitro specificity of CLIO-EPPT for adenocarcinomas was further characterized by flow cytometric analysis of probe binding to selected adenocarcinoma and control cell lines (FIG. 7E). […] Fluorescence microscopy experiments, in which adenocarcinoma and control cells were incubated with the probe, confirmed the fluorescence-activated cell sorting data.

[6] = test system: control uMUC-1-negative cell line U87; assay: as above; type: cell-based, human
Source text: as §1, §4

[7] = test system: uMUC-1-positive (LS174T) tumors; assay: In vivo MR and NIRF imaging of tumor-bearing animals; design: species or system mice
Description: (§5) (B) White light (left), near-infrared fluorescent (NIRF) (middle) images, and a color-coded map (right) of mice bearing bilateral underglycosylated mucin-1 antigen uMUC-1-negative (U87) and uMUC-1-positive (LS174T) tumors. NIRF imaging was performed immediately after the MRI session. […] (D) Dual channel fluorescence microscopy of the frozen LS 174T tumor section. Green channel fluorescence from the FITC-labeled EPPT peptide (left) colocalized with Cy5.5 fluorescence derived from Cy5.5-labeled cross-linked iron oxides (middle). […] Magnification bar=10 μm.
as §3

[8] = test system: uMUC-1-negative (U87) tumors; assay: as above; design: species or system mice; conditions: control tumors
Description: as §5, §3

[9] = Dynamic light scattering of CLIO-EPPT probes; type: physicochemical
Source text: To extend these studies using perfluoro labeled polymer, the same FITC-labeled EPPT1 peptide was used. […] The study with the CLIO-EPPT nanoparticles established test procedures which will be used.

[10] = target: underglycosylated mucin-1 antigen (uMUC-1) (Homo sapiens, UniProt P15941); conditions: read-out: binding constant Kd; cited from earlier work
underglycosylated mucin-1 antigen (uMUC-1), sequence (P15941 24-1255): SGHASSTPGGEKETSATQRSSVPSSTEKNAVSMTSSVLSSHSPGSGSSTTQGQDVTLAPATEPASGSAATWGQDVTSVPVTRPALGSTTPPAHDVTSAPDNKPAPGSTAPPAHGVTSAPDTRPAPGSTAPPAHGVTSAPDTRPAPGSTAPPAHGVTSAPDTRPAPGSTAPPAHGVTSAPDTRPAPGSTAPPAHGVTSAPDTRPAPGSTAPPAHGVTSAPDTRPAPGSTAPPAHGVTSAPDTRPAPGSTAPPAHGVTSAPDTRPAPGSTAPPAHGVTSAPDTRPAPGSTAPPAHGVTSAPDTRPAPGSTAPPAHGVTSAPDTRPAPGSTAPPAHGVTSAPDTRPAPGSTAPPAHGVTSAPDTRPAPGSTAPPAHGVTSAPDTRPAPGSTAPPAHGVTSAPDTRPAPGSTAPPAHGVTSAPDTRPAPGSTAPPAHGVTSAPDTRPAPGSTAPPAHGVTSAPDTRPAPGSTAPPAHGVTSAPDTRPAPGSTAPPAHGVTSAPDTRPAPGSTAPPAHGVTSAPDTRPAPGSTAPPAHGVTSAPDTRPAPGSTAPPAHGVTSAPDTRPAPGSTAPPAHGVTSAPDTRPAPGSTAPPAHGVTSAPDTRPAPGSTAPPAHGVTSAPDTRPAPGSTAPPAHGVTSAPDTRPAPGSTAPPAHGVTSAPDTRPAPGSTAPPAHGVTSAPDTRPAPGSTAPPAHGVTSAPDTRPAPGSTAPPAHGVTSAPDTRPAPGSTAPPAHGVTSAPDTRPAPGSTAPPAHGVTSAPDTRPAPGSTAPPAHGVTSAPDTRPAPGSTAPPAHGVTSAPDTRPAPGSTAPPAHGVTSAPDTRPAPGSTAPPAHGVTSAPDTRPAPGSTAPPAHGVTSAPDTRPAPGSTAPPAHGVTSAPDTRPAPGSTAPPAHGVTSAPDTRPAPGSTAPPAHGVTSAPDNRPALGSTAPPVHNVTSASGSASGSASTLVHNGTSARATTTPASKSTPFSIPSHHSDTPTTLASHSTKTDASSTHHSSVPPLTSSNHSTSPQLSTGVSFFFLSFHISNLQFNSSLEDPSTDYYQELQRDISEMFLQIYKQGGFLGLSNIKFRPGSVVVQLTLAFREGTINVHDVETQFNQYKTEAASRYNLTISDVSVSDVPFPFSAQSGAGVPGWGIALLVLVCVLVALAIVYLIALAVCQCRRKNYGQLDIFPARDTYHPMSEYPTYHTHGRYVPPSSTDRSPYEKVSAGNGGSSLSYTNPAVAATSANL

N[C@@H](CC(=O)O)C(=O)O [Aspartic Acid]
LD50 [1]: 20000 mg/kg

CCN(CC)c1ccc2c(-c3ccccc3C(=O)O)c3ccc(=[N+](CC)CC)cc-3oc2c1 [Rhodamine, Rhodamine B]
cytotoxicity (cellular viability by MTS) (INS-1 cells): cytotoxic effects were readily observed

COc1cccc2c1C(=O)c1c(O)c3c(c(O)c1C2=O)C[C@@](O)(C(=O)CO)C[C@@H]3O[C@H]1C[C@H](N)[C@H](O)[C@H](C)O1 [doxorubicin]
intracellular localization (confocal microscopy) (Cells): largely confined to the nucleus | rate of cell death (MTS) (INS cells): comparable rate of cell death

CLIO-EPPT: cross-linked iron oxide nanoparticle carrying Cy5.5 dye and FITC-labeled EPPT1 peptides on the dextran coat; radioiodinated for binding and biodistribution (YC(Acm)AREPPTRTFAYWG-{K(FITC)-Lys}; not fully specified; printed as Y-C(ACM)-A-R-E-P-P-T-R-T-F-A-Y-W-G-K(FITC)K; also: conjugated to CLIO iron oxide nanoparticle with Cy5.5 dye, radioiodinated)
nanoparticle uptake versus uMUC-1-positive tumor cell lines [2]: much lower nanoparticle uptake | CLIO-EPPT nanoparticles bound per cell ([3]; 125I-labeled, 1 hour incubation): 10^7-10^8 nanoparticles per cell | accumulation versus uMUC-1-negative tumor or normal cells ([3]; cell binding assay, P<0.05): significantly more | probe accumulation in uMUC-1-positive tumors relative to uMUC-1-negative tumors [4]: 3.4 times | probe binding by flow cytometry [5]: bound the probe; also recorded: a shift in fluorescence in the FLI and FL4 channels | staining by fluorescence microscopy ([5]; FITC and Cy5.5 channels): stained strongly; also recorded: colocalization of the FITC and Cy5.5 signal | staining by fluorescence microscopy ([6]; U87, FITC or Cy5.5 channels): no fluorescence was observed | probe binding by flow cytometry ([6]; control cell line U87): no cell binding; also recorded: no shift | decrease in signal intensity of T2-weighted MR images ([7]; LS174T tumors, 24 h after probe injection): 52% | dual channel fluorescence microscopy of excised tumors ([7]; uMUC-1-positive tumors): colocalization of FITC and Cy5.5 signals | NIRF signal ([7]; uMUC-1-positive tumors, immediately after MR-imaging session): high intensity NIRF signal; also recorded: strong NIRF signal | NIRF signal [8]: no significant signal | dual channel fluorescence microscopy of excised tumors [8]: no signal | decrease in signal intensity of T2-weighted MR images ([8]; 24 hours after probe injection): 13-18% | hydrodynamic diameter [9]: about 36 nm

synthetic peptide YCAREPPTRTFAYWG (SEQ ID NO: 1) derived from CDR3 Vh region of monoclonal antibody ASM2 (not fully specified (C-terminus); listed as Homo sapiens) [EPPT1]
pKd [10]: 4.70
